Experimental data as given in paper PMC4049535 (Nature communications, 2013).

Key:
Antigen 85C (Ag85C) [1] = target: T1, Antigen 85C (Ag85C) (Mycobacterium tuberculosis, UniProt P9WQN9); assay: resorufin butyrate fluorometric assay dose-dependence; assay type: biochemical
Antigen 85C (Ag85C) [2] = target: T1, Antigen 85C (Ag85C); assay: peptide mass fingerprinting of tryptic peptides; assay type: biochemical

T1 sequence (P9WQN9 46-340): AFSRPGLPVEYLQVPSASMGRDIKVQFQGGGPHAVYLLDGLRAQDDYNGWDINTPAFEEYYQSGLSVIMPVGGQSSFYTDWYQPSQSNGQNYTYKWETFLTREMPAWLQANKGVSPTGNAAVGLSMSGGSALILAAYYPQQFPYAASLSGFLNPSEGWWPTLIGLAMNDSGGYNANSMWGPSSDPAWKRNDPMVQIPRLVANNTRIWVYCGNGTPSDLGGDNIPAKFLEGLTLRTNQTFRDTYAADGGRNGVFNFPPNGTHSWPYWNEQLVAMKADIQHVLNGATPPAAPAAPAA

Structure (SMILES) | Ki (Antigen 85C (Ag85C) [1]) [nM] | peptide mass fingerprinting of tryptic peptides (MALDI-MS); activity loss in res (Antigen 85C (Ag85C) [2]) [mM]
O=c1c2ccccc2[se]n1-c1ccccc1 [EBS, ebselen] | 63 | 
NC(=O)CI [IAA, iodoacetamide] |  | 51.2
